# Laboratory results from patent publication EP4603105A1, “PHARMACEUTICAL COMPOSITION CONTAINING CYCLIC COMPOUND HAVING SELECTIVE KRAS INHIBITORY EFFECT AGAINST HRAS AND NRAS” (CHUGAI SEIYAKU KABUSHIKI KAISHA, priority 2022, dated 2024).
# Key:
# [1] = target: GDP-bound NRAS wild-type protein (Homo sapiens, UniProt P01111); test: Binding to NRAS by surface plasmon resonance (SPR), KD and KD ratio to KRAS; details: ratio of KD for GDP-bound NRAS wild-type protein to KD for KRAS
# How it was run: (§1)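 Compound binding is evaluated by SPR single-cycle kinetics, with concentrations added intermittently from low to high for 75 s each. Target surfaces carry GDP-loaded biotinylated Avi-RAS at about 100–300 RU, regenerated after each cycle; temperature 30°C. A 1:1 binding model gives KD.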
# HRAS wild-type protein = HRAS wild-type protein (Homo sapiens, UniProt P01112); test: Binding to HRAS by surface plasmon resonance (SPR), KD and KD ratio to KRAS; details: ratio of KD for HRAS wild-type protein to KD for KRAS
# How it was run: as §1
# [2] = target: GDP-bound KRAS wild-type protein (Homo sapiens, UniProt P01116); test: Binding to KRAS by surface plasmon resonance (SPR), dissociation constant KD; details: 1:1 binding model
# How it was run: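 GDP-loaded biotinylated Avi-tag RAS proteins (E. coli-expressed) captured on a Biotin CAPture chip at ~100–300 RU; single-cycle kinetics at 30°C, 100 µL/min, 75 s injections of rising compound concentrations. HBS pH 7.4 running buffer with 1 mM DTT, 10 mM MgCl2, 10 µM GDP, 4% DMSO. KD from 1:1 binding fit.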
# [3] = tested on: human lung cancer strain NCI-H441; test: NCI-H441 cell proliferation inhibitory activity (CellTiter-Glo, 4 days); type: cell-based; details: NCI-H441 cells, 4 days, read-out: NCl-H441 IC50
# How it was run: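 Proliferation was scored by […] measured after the reagent was added to cultures kept at 37°C in 5% carbon dioxide.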
# HRAS wild-type protein, sequence (P01112 whole entry): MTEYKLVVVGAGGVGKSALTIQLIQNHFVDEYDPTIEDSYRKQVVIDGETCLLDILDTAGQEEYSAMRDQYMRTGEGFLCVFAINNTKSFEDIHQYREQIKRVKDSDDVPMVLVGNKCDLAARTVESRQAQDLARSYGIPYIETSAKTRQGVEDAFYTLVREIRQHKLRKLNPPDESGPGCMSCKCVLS
# GDP-bound KRAS wild-type protein, sequence (P01116 1-188 isoform P01116-2): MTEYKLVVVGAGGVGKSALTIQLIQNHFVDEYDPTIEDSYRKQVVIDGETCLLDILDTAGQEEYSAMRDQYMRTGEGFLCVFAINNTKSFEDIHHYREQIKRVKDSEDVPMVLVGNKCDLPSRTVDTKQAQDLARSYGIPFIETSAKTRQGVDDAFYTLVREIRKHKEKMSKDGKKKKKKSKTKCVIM
# GDP-bound NRAS wild-type protein, sequence (P01111 whole entry): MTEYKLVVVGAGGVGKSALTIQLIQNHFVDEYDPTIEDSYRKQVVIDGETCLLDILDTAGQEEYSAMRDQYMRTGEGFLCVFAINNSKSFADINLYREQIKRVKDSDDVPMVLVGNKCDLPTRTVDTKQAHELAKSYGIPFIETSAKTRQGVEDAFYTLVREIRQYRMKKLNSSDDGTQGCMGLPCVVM
SMILES,Kd [2],IC50 [3],NRAS /KRAS [1],HRAS /KRAS (HRAS wild-type protein)
CCCOC[C@H]1C(=O)N[C@@H]([C@@H](C)CC)C(=O)N(C)CC(=O)N(C)[C@H]2C/C=C\CCN(C2=O)[C@@H](CC2CCC(F)(F)CC2)C(=O)N(C)CC(=O)N[C@@H](CCc2ccc(C(F)(F)F)c(OC)c2)C(=O)N2C[C@H](OCC)C[C@H]2C(=O)NC2(CC(C)(C)C2)C(=O)N(C)[C@@H](C(CC)CC)C(=O)N(C)[C@H](C(=O)N(C)C)CC(=O)N1C [PP2464],0.98 nM,66 nM,A (a compound having 10 or more and less than 20 is denoted as A),A (a compound having 10 or more and less than 20 is denoted as A)
CCOC[C@H]1C(=O)N[C@@H]([C@@H](C)CC)C(=O)N(C)CC(=O)N(C)[C@H]2C/C=C\CCN(C2=O)[C@@H](Cc2ccc(C)cc2)C(=O)N(C)CC(=O)N[C@@H](CCc2ccc(C(F)(F)F)c(Cl)c2)C(=O)N2C[C@@H](C)C[C@H]2C(=O)NC2(CC(C)(C)C2)C(=O)N(C)[C@@H](C2CCCC2)C(=O)N(C)[C@H](C(=O)N(CC)CC)CC(=O)N1C [PP2465],0.51 nM,39.4 nM,AA (a compound having 20 or more is denoted as AA),A (a compound having 10 or more and less than 20 is denoted as A)
CCC(CC)[C@H]1C(=O)N(C)[C@H](C(=O)N(C)C)CC(=O)N(C)[C@@H](COC)C(=O)N[C@@H]([C@@H](C)CC)C(=O)N(C)CC(=O)N(C)[C@H]2C/C=C\CCN(C2=O)[C@@H](CC2CCCCC2)C(=O)N(C)CC(=O)N[C@@H](CCc2ccc(C(F)(F)F)c(OC)c2)C(=O)N2C[C@@H](C)C[C@H]2C(=O)NC2(CC(C)(C)C2)C(=O)N1C [PP2466],3.9 nM,170 nM,A (a compound having 10 or more and less than 20 is denoted as A),A (a compound having 10 or more and less than 20 is denoted as A)
CCCOC[C@H]1C(=O)N[C@@H]([C@@H](C)CC)C(=O)N(C)CC(=O)N(C)[C@H]2C/C=C\CCN(C2=O)[C@@H](Cc2ccc(C)cc2)C(=O)N(C)CC(=O)N[C@@H](CCc2ccc(C(F)(F)F)c(Cl)c2)C(=O)N2C[C@@H](C)C[C@H]2C(=O)NC2(CC(C)(C)C2)C(=O)N(C)[C@@H](C2CCCC2)C(=O)N(C)[C@H](C(=O)N(C)CC)CC(=O)N1C [PP2467],0.26 nM,21.8 nM,A (a compound having 10 or more and less than 20 is denoted as A),B (a compound having 3 or more and less than 10 is denoted as B)
CCO[C@@H]1C[C@H]2C(=O)NC3(CC(C)(C)C3)C(=O)N(C)[C@@H](C(CC)CC)C(=O)N(C)[C@H](C(=O)N(C)C)CC(=O)N(C)[C@@H](COC)C(=O)N[C@@H]([C@@H](C)CC)C(=O)N(C)CC(=O)N(C)[C@H]3C/C=C\CCN(C3=O)[C@@H](CC3CCCCC3)C(=O)N(C)CC(=O)N[C@@H](CCc3ccc(C(F)(F)F)c(Cl)c3)C(=O)N2C1 [PP2468],1.3 nM,72.2 nM,AA (a compound having 20 or more is denoted as AA),A (a compound having 10 or more and less than 20 is denoted as A)
CCOC[C@H]1C(=O)N[C@@H]([C@@H](C)CC)C(=O)N(C)CC(=O)N(C)[C@H]2C/C=C\CCN(C2=O)[C@@H](CC2CCCCC2)C(=O)N(C)CC(=O)N[C@@H](CCc2ccc(C(F)(F)F)c(OC)c2)C(=O)N2C[C@H](OCC)C[C@H]2C(=O)NC2(CC(C)(C)C2)C(=O)N(C)[C@@H](C(CC)CC)C(=O)N(C)[C@H](C(=O)N(C)C)CC(=O)N1C [PP2470],1.8 nM,118 nM,A (a compound having 10 or more and less than 20 is denoted as A),A (a compound having 10 or more and less than 20 is denoted as A)

# The next lines start with results.
Kd [2],IC50 [3],SMILES,NRAS /KRAS [1],HRAS /KRAS (HRAS wild-type protein)
0.16 nM,15.3 nM,CCCOC[C@H]1C(=O)N[C@@H]([C@@H](C)CC)C(=O)N(C)CC(=O)N(C)[C@H]2C/C=C\CCN(C2=O)[C@@H](Cc2ccc(C)cc2)C(=O)N(C)CC(=O)N[C@@H](CCc2cc(F)c(C(F)(F)F)c(F)c2)C(=O)N2C[C@@H](C)C[C@H]2C(=O)NC2(CC(C)(C)C2)C(=O)N(C)[C@@H](C2CCCC2)C(=O)N(C)[C@H](C(=O)N(C)CC)CC(=O)N1C [PP2471],A (a compound having 10 or more and less than 20 is denoted as A),A (a compound having 10 or more and less than 20 is denoted as A)
0.58 nM,42.3 nM,CCCOC[C@H]1C(=O)N[C@@H]([C@@H](C)CC)C(=O)N(C)CC(=O)N(C)[C@H]2C/C=C\CCN(C2=O)[C@@H](CC2CCC(F)(F)CC2)C(=O)N(C)CC(=O)N[C@@H](CCc2cc(F)c(C(F)(F)F)c(F)c2)C(=O)N2C[C@H](OCC)C[C@H]2C(=O)NC2(CC(C)(C)C2)C(=O)N(C)[C@@H](C(CC)CC)C(=O)N(C)[C@H](C(=O)N(C)C)CC(=O)N1C [PP2472],A (a compound having 10 or more and less than 20 is denoted as A),A (a compound having 10 or more and less than 20 is denoted as A)
1.5 nM,176 nM,CCOC[C@H]1C(=O)N[C@@H]([C@@H](C)CC)C(=O)N(C)CC(=O)N(C)[C@H]2C/C=C\CCN(C2=O)[C@@H](CC2CCC(F)(F)CC2)C(=O)N(C)CC(=O)N[C@@H](CCc2ccc(C(F)(F)F)c(Cl)c2)C(=O)N2C[C@@H](C)C[C@H]2C(=O)NC2(CC(C)(C)C2)C(=O)N(C)[C@@H](C(CC)CC)C(=O)N(C)[C@H](C(=O)N(C)C)CC(=O)N1C [PP2475],AA (a compound having 20 or more is denoted as AA),A (a compound having 10 or more and less than 20 is denoted as A)
1.8 nM,127 nM,CCO[C@@H]1C[C@H]2C(=O)NC3(CC(C)(C)C3)C(=O)N(C)[C@@H](C(CC)CC)C(=O)N(C)[C@H](C(=O)N(C)C)CC(=O)N(C)[C@@H](C(C)C)C(=O)N[C@@H]([C@@H](C)CC)C(=O)N(C)CC(=O)N(C)[C@H]3C/C=C\CCN(C3=O)[C@@H](CC3CCC(F)(F)CC3)C(=O)N(C)CC(=O)N[C@@H](CCc3ccc(C(F)(F)F)c(OC)c3)C(=O)N2C1 [PP2477],A (a compound having 10 or more and less than 20 is denoted as A),A (a compound having 10 or more and less than 20 is denoted as A)
1.4 nM,26 nM,CCOC[C@H]1C(=O)N[C@@H]([C@@H](C)CC)C(=O)N(C)CC(=O)N(C)[C@H]2C/C=C\CCN(C2=O)[C@@H](CC2CCCCC2)C(=O)N(C)CC(=O)N[C@@H](CCc2cc(F)c(C(F)(F)F)c(F)c2)C(=O)N2C[C@H](OCC)C[C@H]2C(=O)NC2(CC(C)(C)C2)C(=O)N(C)[C@@H](C(CC)CC)C(=O)N(C)[C@H](C(=O)N(C)C)CC(=O)N1C [PP2479],AA (a compound having 20 or more is denoted as AA),A (a compound having 10 or more and less than 20 is denoted as A)
0.84 nM,30.5 nM,CCO[C@@H]1C[C@H]2C(=O)NC3(CC(C)(C)C3)C(=O)N(C)[C@@H](C(CC)CC)C(=O)N(C)[C@H](C(=O)N(C)C)CC(=O)N(C)[C@@H](CC3CC3)C(=O)N[C@@H]([C@@H](C)CC)C(=O)N(C)CC(=O)N(C)[C@H]3C/C=C\CCN(C3=O)[C@@H](CC3CCC(F)(F)CC3)C(=O)N(C)CC(=O)N[C@@H](CCc3ccc(C(F)(F)F)c(OC)c3)C(=O)N2C1 [PP2480],A (a compound having 10 or more and less than 20 is denoted as A),A (a compound having 10 or more and less than 20 is denoted as A)
1.6 nM,33.6 nM,CCO[C@@H]1C[C@H]2C(=O)NC3(CC(C)(C)C3)C(=O)N(C)[C@@H](C(CC)CC)C(=O)N(C)[C@H](C(=O)N(C)C)CC(=O)N(C)[C@@H](C(C)C)C(=O)N[C@@H]([C@@H](C)CC)C(=O)N(C)CC(=O)N(C)[C@H]3C/C=C\CCN(C3=O)[C@@H](CC3CCC(F)(F)CC3)C(=O)N(C)CC(=O)N[C@@H](CCc3cc(F)c(C(F)(F)F)c(F)c3)C(=O)N2C1 [PP2481],A (a compound having 10 or more and less than 20 is denoted as A),A (a compound having 10 or more and less than 20 is denoted as A)
1.6 nM,195 nM,CCCOC[C@H]1C(=O)N[C@@H]([C@@H](C)CC)C(=O)N(C)CC(=O)N(C)[C@H]2C/C=C\CCN(C2=O)[C@@H](CC2CCC(F)(F)CC2)C(=O)N(C)CC(=O)N[C@@H](CCc2ccc(C(F)(F)F)c(OC)c2)C(=O)N2C[C@@H](C)C[C@H]2C(=O)NC2(CC(C)(C)C2)C(=O)N(C)[C@@H](C(CC)CC)C(=O)N(C)[C@H](C(=O)N(C)C)CC(=O)N1C [PP2483],A (a compound having 10 or more and less than 20 is denoted as A),A (a compound having 10 or more and less than 20 is denoted as A)
